The source of these data is patent US20250188092A1, “RIFAMYCIN ANALOGS” (THE REGENTS OF THE UNIVERSITY OF MICHIGAN, priority 2021, published 2025).

Assay [1] relates to non-replicating cultures of M. tuberculosis H37Rv transformed with lux ABCDE. Kind of assay: microbe, parasite or virus in culture. It is filed as cell-based, Mycobacterium tuberculosis. The settings on record: for MIC / MIC90: Mycobacterium tuberculosis, H37RV, ≥90% reduction in luminescence, read-out: MIC90 LORA; for MIC90 LORA/MABA: ratio of LORA MIC90 to MABA MIC90.
Assay [2] relates to M. tuberculosis transformed with luxABCDE. Briefly: microbe, parasite or virus in culture. It is filed as cell-based, Mycobacterium tuberculosis.
[3] abbreviates: Mycobacterium tuberculosis, 168 h, […], ≥99% reduction in luminescence, read-out: MBC99 Day 7 (Lux Assay) MBC.

Structures are written as SMILES. In brackets after ≈: the same amount, converted by molar mass. Where two headings read alike, the source gives them in different places. Some results are limits rather than exact numbers.

Take `CO[C@H]1/C=C/O[C@@]2(C)Oc3c(C)c(O)c4c(=O)c(c5oc6cc(N7CCN(CC(C)C)CC7)cc(OCc7cccc(CN8CCN(C(=O)Cn9ccnc9)CC8)c7)c6nc-5c4c3C2=O)NC(=O)/C(C)=C\C=C\[C@H](C)[C@H](O)[C@@H](C)[C@@H](O)[C@@H](C)[C@H](OC(C)=O)[C@@H]1C` [Compound 12c, (7S,9E,11S,12R,13S,14R,15R,16R,17S,18S,19E,21Z)-2,15,17-Trihydroxy-32-{[3-({4-[2-(1H-imidazol-1-yl)acetyl]piperazin-1-yl}methyl)phenyl]methoxy}-11-methoxy-3,7,12,14,16,18,22-heptamethyl-30-[4-(2-methylpropyl)piperazin-1-yl]-6,23,37-trioxo-8,27,38-trioxa-24,34-diazahexacyclo[23.11.1.1^4,7.0^5,36.0^26,35.0^28,33]octatriaconta-1(36)2,4,9,19,21,25,28,30,32,34-undecaen-13-yl acetate]: in assay [1], the “MIC90 LORA Rel to RMP” value came to 0.11 and the MIC is less than 0.016 µM. Moreover, the “MBC99 Day 7 (Lux Assay) MBC Rel to RMP” value in assay [2] came to 0.08. Further, the MBC in assay [2] (setting [3]) was found to be 0.037 µM.

Consider `CO[C@H]1/C=C/O[C@@]2(C)Oc3c(C)c(O)c4c(=O)c(c5oc6cccc(OCc7ccc(CN8CCOCC8)cc7)c6nc-5c4c3C2=O)NC(=O)/C(C)=C\C=C\[C@H](C)[C@H](O)[C@@H](C)[C@@H](O)[C@@H](C)[C@H](OC(C)=O)[C@@H]1C` [Compound 16d, (7S,9E,11S,12R,13S,14R,15R,16R,17S,18S,19E,21Z)-2,15,17-Trihydroxy-11-methoxy-3,7,12,14,16,18,22-heptamethyl-32-({4-[(morpholin-4-yl)methyl]phenyl}methoxy)-6,23,37-trioxo-8,27,38-trioxa-24,34-diazahexacyclo[23.11.1.1^4,7.0^5,36.0^26,35.0^28,33]octatriaconta-1(36)2,4,9,19,21,25,28,30,32,34-undecaen-13-yl acetate], for which, in assay [1], the “MIC90 LORA Rel to RMP” value is 0.62, the MIC90 came out at 0.031 µM and the “MIC90 LORA/MABA” value is on record as 8.4. For the same molecule, the “MBC99 Day 7 (Lux Assay) MBC Rel to RMP” value in assay [2] was found to be 0.20. Further, the MBC in assay [2] (setting [3]) came out at 0.092 µM.

For `CO[C@H]1/C=C/O[C@@]2(C)Oc3c(C)c(O)c4c(=O)c(c5oc6cccc(OCc7ccc(CN8CCN(C)CC8)cc7)c6nc-5c4c3C2=O)NC(=O)/C(C)=C\C=C\[C@H](C)[C@H](O)[C@@H](C)[C@@H](O)[C@@H](C)[C@H](OC(C)=O)[C@@H]1C` [Compound 16e, (7S,9E,11S,12R,13S,14R,15R,16R,17S,18S,19E,21Z)-2,15,17-trihydroxy-11-methoxy-3,7,12,14,16,18,22-heptamethyl-32-({4-[(4-methylpiperazin-1-yl)methyl]phenyl}methoxy)-6,23,37-trioxo-8,27,38-trioxa-24,34-diazahexacyclo[23.11.1.1^4,7.0^5,36.0^26,35.0^28,33]octatriaconta-1,3,5(36)9,19,21,25,28,30,32,34-undecaen-13-yl acetate], in assay [1], the “MIC90 LORA Rel to RMP” value is reported as 1.3, the MIC90 is 0.036 µM and the “MIC90 LORA/MABA” value is reported as 5.6. In addition, in assay [2], the “MBC99 Day 7 (Lux Assay) MBC Rel to RMP” value came to 0.14. Also, in assay [2] (setting [3]), the MBC came out at 0.06 µM.

Consider `CO[C@H]1/C=C/O[C@@]2(C)Oc3c(C)c(O)c4c(=O)c(c5oc6cc(N7CCN(CC(C)C)CC7)cc(OCc7ccc(CN8CCOCC8)cc7)c6nc-5c4c3C2=O)NC(=O)/C(C)=C\C=C\[C@H](C)[C@H](O)[C@@H](C)[C@@H](O)[C@@H](C)[C@H](OC(C)=O)[C@@H]1C` [Compound 17e, (7S,9E,11S,12R,13S,14R,15R,16R,17S,18S,19E,21Z)-2,15,17-Trihydroxy-11-methoxy-3,7,12,14,16,18,22-heptamethyl-30-[4-(2-methylpropyl)piperazin-1-yl]-32-({4-[(morpholin-4-yl)methyl]phenyl}methoxy)-6,23,37-trioxo-8,27,38-trioxa-24,34-diazahexacyclo[23.11.1.1^4,7.0^5,36.0^26,35.0^28,33]octatriaconta-1(36)2,4,9,19,21,25,28,30,32,34-undecaen-13-yl acetate], for which, in assay [1], the “MIC90 LORA Rel to RMP” value was found to be 0.11, the MIC amounted to 0.0094 µM and the “MIC90 LORA/MABA” value was determined as 1.9. The “MBC99 Day 7 (Lux Assay) MBC Rel to RMP” value in assay [2] is given as 0.20. The MBC in assay [2] (setting [3]) stood at 0.093 µM. This molecule yielded an MIC90 in assay [2] (Mycobacterium tuberculosis, 168 h, day 7 of time-kill study) of 0.009 µM. Further, in assay [2] (Mycobacterium tuberculosis, 168 h, day 7 of time-kill study, read-out: MBC99), the MBC was 0.093 µM. In addition, in assay [2] (day 7), the “more potent than RMP in terms of day 7 MBC” value was “approximately 10 fold”.

For the molecule `CO[C@H]1/C=C/O[C@@]2(C)Oc3c(C)c(O)c4c(=O)c(c5oc6cc(N7CCN(C(=O)C(C)(C)C)CC7)cc(OCc7ccc(CN8CCOCC8)cc7)c6nc-5c4c3C2=O)NC(=O)/C(C)=C\C=C\[C@H](C)[C@H](O)[C@@H](C)[C@@H](O)[C@@H](C)[C@H](OC(C)=O)[C@@H]1C` [Compound 17f, (7S,9E,11S,12R,13S,14R,15R,16R,17S,18S,19E,21Z)-30-[4-(2,2-Dimethylpropanoyl)-piperazin-1-yl]-2,15,17-trihydroxy-11-methoxy-3,7,12,14,16,18,22-heptamethyl-32-({4-[(morpholin-4-yl)methyl]phenyl}methoxy)-6,23,37-trioxo-8,27,38-trioxa-24,34-diazahexacyclo[23.11.1.1^4,7.0^5,36.0^26,35.0^28,33]octatriaconta-1(36)2,4,9,19,21,25,28,30,32,34-undecaen-13-yl acetate], in assay [1], the “MIC90 LORA Rel to RMP” value was 1.8, the MIC is 0.369 µM and the “MIC90 LORA/MABA” value is listed as 14. In assay [2] (setting [3]), the MBC is more than 0.1 µM.

For `CCC(=O)N1CCN(c2cc(OCc3ccc(CN4CCOCC4)cc3)c3nc4c5c6c7c(C)c(O)c5c(=O)c(c-4oc3c2)NC(=O)/C(C)=C\C=C\[C@H](C)[C@H](O)[C@@H](C)[C@@H](O)[C@@H](C)[C@H](OC(C)=O)[C@H](C)[C@@H](OC)/C=C/O[C@@](C)(O7)C6=O)CC1` [Compound 17g, (7S,9E,11S,12R,13S,14R,15R,16R,17S,18S,19E,21Z)-2,15,17-Trihydroxy-11-methoxy-3,7,12,14,16,18,22-heptamethyl-32-({4-[(morpholin-4-yl)methyl]phenyl}methoxy)-6,23,37-trioxo-30-(4-propanoylpiperazin-1-yl)-8,27,38-trioxa-24,34-diazahexacyclo-[23.11.1.1^4,7.0^5,36.0^26,35.0^28,33]octatriaconta-1(36)2,4,9,19,21,25,28,30,32,34-undecaen-13-yl acetate], in assay [1], the “MIC90 LORA Rel to RMP” value is listed as 0.3, the MIC90 was 0.065 µM and the “MIC90 LORA/MABA” value worked out at 5.4. Moreover, the MBC in assay [2] (setting [3]) is more than 0.1 µM.

In the case of `CO[C@H]1/C=C/O[C@@]2(C)Oc3c(C)c(O)c4c(=O)c(c5oc6cc(N7CCN(C8CCN(C)CC8)CC7)cc(OCc7ccc(CN8CCOCC8)cc7)c6nc-5c4c3C2=O)NC(=O)/C(C)=C\C=C\[C@H](C)[C@H](O)[C@@H](C)[C@@H](O)[C@@H](C)[C@H](OC(C)=O)[C@@H]1C` [Compound 17h, (7S,9E,11S,12R,13S,14R,15R,16R,17S,18S,19E,21Z)-2,15,17-trihydroxy-11-methoxy-3,7,12,14,16,18,22-heptamethyl-30-[4-(1-methylpiperidin-4-yl)piperazin-1-yl]-32-{[4-(morpholin-4-ylmethyl)phenyl]methoxy}-6,23,37-trioxo-8,27,38-trioxa-24,34-diazahexacyclo-[23.11.1.1^4,7.0^5,36.0^26,35.0^28,33]octatriaconta-1,3,5(36)9,19,21,25,28,30,32,34-undecaen-13-yl acetate], in assay [1], the “MIC90 LORA Rel to RMP” value stood at 12, the MIC90 was 0.318 µM and the “MIC90 LORA/MABA” value came to 9.0. For the same molecule, the MBC in assay [2] (setting [3]) is more than 0.1 µM.

In the case of `CO[C@H]1/C=C/O[C@@]2(C)Oc3c(C)c(O)c4c(=O)c(c5oc6cc(N7CCN(CC(=O)O)CC7)cc(OCc7ccc(CN8CCOCC8)cc7)c6nc-5c4c3C2=O)NC(=O)/C(C)=C\C=C\[C@H](C)[C@H](O)[C@@H](C)[C@@H](O)[C@@H](C)[C@H](OC(C)=O)[C@@H]1C` [Compound 17i], in assay [1], the “MIC90 LORA Rel to RMP” value came out at 9.2, the MIC came to 0.247 µM (≈ 0.28 µg/mL) and the “MIC90 LORA/MABA” value was found to be 9.5. Also, in assay [2] (setting [3]), the MBC was more than 0.1 µM.

As to `CO[C@H]1/C=C/O[C@@]2(C)Oc3c(C)c(O)c4c(=O)c(c5oc6cc(N7CCS(=O)(=O)CC7)cc(OCc7ccc(CN8CCOCC8)cc7)c6nc-5c4c3C2=O)NC(=O)/C(C)=C\C=C\[C@H](C)[C@H](O)[C@@H](C)[C@@H](O)[C@@H](C)[C@H](OC(C)=O)[C@@H]1C` [Compound 17j, (7S,9E,11S,12R,13S,14R,15R,16R,17S,18S,19E,21Z)-30-(1,1-dioxothiomorpholin-4-yl)-2,15,17-trihydroxy-11-methoxy-3,7,12,14,16,18,22-heptamethyl-32-([4-(morpholin-4-ylmethyl)phenyl]methoxy)-6,23,37-trioxo-8,27,38-trioxa-24,34-diazahexacyclo-[23.11.1.1^4,7.0^5,36.0^26,35.0^28,33]octatriaconta-1,3,5(36)9,19,21,25,28,30,32,34-undecaen-13-yl acetate], the MIC in assay [1] is more than 0.02 µM. Further, the MBC in assay [2] (setting [3]) is more than 0.1 µM.

For the molecule `CO[C@H]1/C=C/O[C@@]2(C)Oc3c(C)c(O)c4c(=O)c(c5oc6cc(N7CCC(C(=O)O)CC7)cc(OCc7ccc(CN8CCOCC8)cc7)c6nc-5c4c3C2=O)NC(=O)/C(C)=C\C=C\[C@H](C)[C@H](O)[C@@H](C)[C@@H](O)[C@@H](C)[C@H](OC(C)=O)[C@@H]1C` [Compound 17k], in assay [1], the MIC was more than 0.02 µM. The MBC in assay [2] (setting [3]) was more than 0.1 µM.
